Laboratory results from patent US20130072563A1, “PERACID AND 2-HYDROXY ORGANIC ACID COMPOSITIONS AND METHODS FOR SANITATION AND DISEASE PREVENTION” (Fresh Express Incorporated, priority 2009, published 2013).

Legend:
[1] = cited from earlier work
[2] = system: E. coli K12; assay: Attached cells challenge test, Romaine; assay type: cell-based
[3] = 40° C.; cited from earlier work
[4] = system: E. coli K12; assay: Attached cells challenge test, Spinach; assay type: cell-based; details: LA 0.0%
[5] = Depletion of sanitizer wash water by diced Romaine Lettuce, commercial scale test; assay type: physicochemical; details: 38 to 40 F.
Protocol: (§1) These experiments evaluated the consumption or depletion of peroxyacetic acid when used to wash produce.
(§2) Treatments: chlorinated water, peroxyacetic acid wash water, and FE sanitizer wash water
(§3) Temperature: 38 to 40° F.
(§4) Produce: 1.5″×2″ diced Romaine lettuce
(§5) A. Determination of the amount of Romaine Lettuce that could deplete 600 gallons of peroxyacetic acid wash water. • 1. Perform full sanitization on the Pilot Line System. • 2. Fill the 2nd flume tank, 2″ reservoir, and 2″ filtering tank with tap water. • 3. Recycle the water through the system until the water in the system is being cooled down to 40° F. • 4. Calibrate the Prominent System and use the Prominent System to monitor the concentration of PAA in the wash water. • 5. Add the PAA to the 2nd filtering tank until the target processing limit is reached. • 6. Dice the Romaine Lettuce via the translicer. • 7. Collect the 2″33 2″ diced Romaine in totes. • 8. Record the weight of each tote prior to transferring it to the 2nd flume. • 9. Collect three untreated bags of Romaine Lettuce from each bin (1 top, 1 middle, and 1 bottom). • 10. Collect three treated bags of Romaine Lettuce at the end of F2 (1 beginning, 1 middle, and 1 end of the bin). • 11. Place white totes at the bottom of the locations with water spill. Return the spilt water back into the flume tank as needed. • 12. Place white totes at the bottom outlets of the centrifuge to collect liquid that would be spin off from the leaves. Return the collected water back into the flume tank as needed. • 13. Repeat Steps ‘e’ to ‘k’ for the rest of the bins till the FE concentrations fall below the lowest processing limits. • 14. Enumerate the microbial population (APC and Yeast and mold) on the collected samples.
B. Determination of the Amount of Romaine Lettuce that Could Deplete 600 gallons of FE Wash Water • 1. Perform full sanitization on the Pilot Line System. • 2. Fill the flume tank, 2″ flume tank, 1st reservoir, 2nd reservoir, 1st filtering tank, and 2nd filtering tank with tap water. • 3. Recycle the water through the system until the water in the system is being cooled down to 40° F. • 4. Switch on the by-passes for the 1st and 2″ flume tank systems so that water would not be going through the filtering systems but only recycling from the flume tank to its associate reservoir continuously. • 5. Add the chemical ingredients to both tank until the target processing limit is reached. • 6. Verify the concentration of FE by the probe of the Prominent Monitoring System at the 1st flume tank (F1), 1^St Reservoir (R1), 2nd Flume tank (F2), and the 2nd Reservoir (R2). • 7. Collect water samples from F1 and F2. • 8. Assemble the Romaine Lettuce Bins next to the dumpster. • 9. Transfer whole Romaine Lettuce leaves from the bin to the conveyor. • 10. Ensure that the lid above the F1 is closed. Turn the “ON/OFF” switch of the translicer to “ON”. • 11. Turn the conveyor for transferring leaves into the translicer to “ON”. • 12. Ensure that the chopped Romaine are delivered evenly into the flume tank without aggregation and clumping. • 13. Collect three untreated bags of Romaine Lettuce from each bin (1 top, 1 middle, and 1 bottom). • 14. Collect three treated bags of Romaine Lettuce at the end of F2 (1 beginning, 1 middle, and 1 end of the bin). • 15. Verify the pH, temperature, and the concentration of FE at the 1st flume tank (F1), 1st Reservoir (R1), 2nd Flume tank (F2), and the 2nd Reservoir (R2) before and after processing a bin. • 16. Place white totes at the bottom of the locations with water spill. Return the spilt water back into the flume tank as needed. • 17. Place white totes at the bottom outlets of the centrifuge to collect liquid that would be spin off from the leaves. Return the collected water back into the flume tank as needed. • 18. Repeat Steps ‘e’ to ‘o’ for the rest of the bins till the FE concentrations fall below the lowest processing limits. • 19. […]

[6] = system: indigenous microorganisms (Aerobic Plate Counts); assay: Reduction of indigenous microorganisms on Romaine, commercial scale test; assay type: cell-based; details: 73-84 ppm peroxyacetic acid, no lactic acid
Protocol: as §1, §2, §3, §4
as §5, with “Place white totes at the bottom outlets of the centrifuge to collect liquid that would be spin off from the leaves. Return the collected water back into the flume tank as needed. • 13. Repeat Steps ‘e’ to ‘k’ for the rest of the bins till the FE concentrations fall below the lowest processing limits. • 14. Enumerate the microbial population (APC and Yeast and mold) on the collected samples.” left out

[7] = system: Lactobacillus plantarum 14917; assay: Suspended Cells Challenge Test at 20 s residence time with no surfactant; assay type: cell-based; details: Lactic Acid 0 ppm
Protocol: The experimental treatment groups were tap water, chlorinated water, a FE sanitizer wash water (FE, FE sanitizer, a solution of peroxyacetic acid and lactic acid, as further specified in a given experiment).
The experimental protocol was as follows: • 1. Transfer 1.00 mL of a ˜10^8cfu/g Lactobacillus plantarum (ATCC 14917) stock culture into a test tube containing 9.00 mL of treatment test solution • 2. Vortex the mixture for 15 s • 3. Stop the reaction by transferring 1 mL of the treated samples to 9 mL of Butterfield Phosphate Buffer • 4. Enumerate viable residual cells through serial dilutions and spread plating with 1-mL transfers • 5. […] Repeat Steps 1 to 5 two more times • 7. Repeat Steps 1 to 6 with flume water • 8. Repeat Steps 1 to 6 with chlorinated water • 9. Repeat Steps 1 to 8 with various levels of FE • 10. Repeat Steps 1 to 8 with various levels of lactic acid • 11. Repeat Steps 1 to 8 with various levels of peroxyacetic acid • 12. Repeat Steps 1 to 11 with Listeria innocua (ATCC33090)
Estimation of Log Reductions • 1. Log […] is a measure of the percent of microorganisms that are inactivated during the disinfection process and is defined as Log Inactivation=Log10 (No/NT) where No is the initial influent concentration of viable microorganisms; NT is the concentration of surviving microorganisms. As M cfu/g=microbial population of stock culture; W cfu/g=microbial population in solution of “Water Treatment” and X cfu/g=microbial population in solution of “X Treatment,” the Log reduction caused by “Treatment X”=Log (w/x)

[8] = 600 gallons, Diced Romaine Lettuce
[9] = Cumulative Wt. of Diced Romaine added 0.0 lb, 600 gallons
[10] = Cumulative Wt. of Diced Romaine added 55.2 lb, 600 gallons
[11] = Cumulative Wt. of Diced Romaine added 114.9 lb, 600 gallons
[12] = Cumulative Wt. of Diced Romaine added 157.2 lb, 600 gallons
[13] = Cumulative Wt. of Diced Romaine added 207.7 lb, 600 gallons
[14] = Cumulative Wt. of Diced Romaine added 272.9 lb, 600 gallons
[15] = Cumulative Wt. of Diced Romaine added 325.8 lb, 600 gallons
[16] = Cumulative Wt. of Diced Romaine added 371.3 lb, 600 gallons
[17] = Cumulative Wt. of Diced Romaine added 424.7 lb, 600 gallons
[18] = Cumulative Wt. of Diced Romaine added 502.6 lb, 600 gallons
[19] = Cumulative Wt. of Diced Romaine added 565.0 lb, 600 gallons
[20] = Cumulative Wt. of Diced Romaine added 629.0 lb, 600 gallons
[21] = Cumulative Wt. of Diced Romaine added 697.1 lb, 600 gallons
[22] = Cumulative Wt. of Diced Romaine added 762.7 lb, 600 gallons
[23] = Cumulative Wt. of Diced Romaine added 826.6 lb, 600 gallons
[24] = Cumulative Wt. of Diced Romaine added 896.2 lb, 600 gallons
[25] = Cumulative Wt. of Diced Romaine added 949.9 lb, 600 gallons

[O][Cl+][O-] [Chlorine Dioxide]
Oxidation Capacity [1]: 1.57 eV

CC(O)C(=O)O (stereo not shown) [Lactic acid, lactic acid]
Log reduction, attached cells ([2]; PAA 0 ppm, LA 1.2%): 1.28

O=[O+][O-] [Ozone]
Oxidation Capacity [1]: 2.07 eV

CC(=O)OO [Peroxyacetic acid, peroxyacetic acid]
Log reduction, attached cells ([2]; PAA 80 ppm, LA 0.0%): 1.18 | apparent equilibrium constant Kap [3]: about 2.21 | Log reduction, attached cells ([4]; PAA 70 ppm): 1.33 | Log reduction, attached cells ([4]; PAA 80 ppm): 2.46 | Pounds of Romaine treated ([5]; 600 gallons of sanitizer): 949.90 lb | Depletion of PA ([5]; 600 gallons): 0.000013 lb of PA per lb of Romaine | Amount of PA (PAA) consumed [5, 8]: 11.7 ppm | Pounds of PA (PAA) consumed [5, 8]: 0.01208 lb | PA (ppm) in wash water [5, 9]: 84.8 ppm | Peroxide (ppm) in wash water [5, 9]: 7.5 ppm | PA (ppm) in wash water [5, 10]: 83.3 ppm | Peroxide (ppm) in wash water [5, 10]: 7.4 ppm | PA (ppm) in wash water [5, 11]: 82.7 ppm | Peroxide (ppm) in wash water [5, 11]: 7.4 ppm | PA (ppm) in wash water [5, 12]: 82.4 ppm | Peroxide (ppm) in wash water [5, 12]: 7.4 ppm | PA (ppm) in wash water [5, 13]: 82.0 ppm | Peroxide (ppm) in wash water [5, 13]: 7.4 ppm | PA (ppm) in wash water [5, 14]: 81.4 ppm | Peroxide (ppm) in wash water [5, 14]: 7.3 ppm | PA (ppm) in wash water [5, 15]: 81.0 ppm | Peroxide (ppm) in wash water [5, 15]: 7.3 ppm | PA (ppm) in wash water [5, 16]: 80.5 ppm | Peroxide (ppm) in wash water [5, 16]: 7.1 ppm | PA (ppm) in wash water [5, 17]: 79.6 ppm | Peroxide (ppm) in wash water [5, 17]: 6.9 ppm | PA (ppm) in wash water [5, 18]: 78.7 ppm | Peroxide (ppm) in wash water [5, 18]: 6.9 ppm | PA (ppm) in wash water [5, 19]: 78.4 ppm | Peroxide (ppm) in wash water [5, 19]: 6.9 ppm | PA (ppm) in wash water [5, 20]: 77.7 ppm | Peroxide (ppm) in wash water [5, 20]: 6.4 ppm | PA (ppm) in wash water [5, 21]: 76.1 ppm | Peroxide (ppm) in wash water [5, 21]: 6.4 ppm | PA (ppm) in wash water [5, 22]: 75.4 ppm | Peroxide (ppm) in wash water [5, 22]: 6.1 ppm | PA (ppm) in wash water [5, 23]: 74.7 ppm | Peroxide (ppm) in wash water [5, 23]: 6.0 ppm | PA (ppm) in wash water [5, 24]: 73.7 ppm | Peroxide (ppm) in wash water [5, 24]: 6.0 ppm | PA (ppm) in wash water [5, 25]: 73.1 ppm | Peroxide (ppm) in wash water [5, 25]: 6.0 ppm | Aerobic Plate Counts after wash [6]: 2.7 Log cfu/g | Log Reduction of indigenous microorganisms [6]: 0.7 log10 | log reduction of suspended cells ([7]; Peroxyacetic acid 70 ppm): 4.52 log10 | log reduction of suspended cells ([7]; Peroxyacetic acid 75 ppm): 5.59 log10 | log reduction of suspended cells ([7]; Peroxyacetic acid 80 ppm): 5.59 log10 | Oxidation Capacity [1]: 1.81 eV

OCl [Sodium hypochlorite (Chlorine bleach), Sodium hypochlorite]
Oxidation Capacity [1]: 1.36 eV
